# How the values were obtained:
# [1] = biological target: T1, human cloned CHRM3 receptor (M3_CHO cells) (Homo sapiens, UniProt P20309); assay: CHRM3 Ca++ Flux Assay (agonist mode, FDSS 7000EX); type: cell-based; settings: for EC50: agonist mode, geometric mean if tested more than once, read-out: M3 FDSS EC50
# T1 construct: expressed in transfected cells; host or cells: CHO-K1
# Description: (§1) The above examples were characterized by measuring the intracellular mobilization of Ca++ ions caused by signaling events mediated by the receptor. The Intra-cellular Calcium flux levels were captured by the highly sensitive Ca++ indicator, Calcium Assay Kit (BD Biosciences, Catalog Number 640178). The fluorescent activity from all receptors were monitored by the fluorescent imager, FDSS 7000EX (Hamamatsu) over a span of 3 minutes.
# (§2) CHO-K1 cells stably expressing the human cloned CHRM3 receptor (M3_CHO cells) were grown and maintained in a monolayer culture with F12/HAM (Life Technologies) supplemented with 10% Fetal Bovine Serum, 1× Pen-Strep, and 0.4 mg/mL Geneticin in a humidified atmosphere (5% CO2) at 37° C. The cultures were grown to 80-9 0% confluency in T150 flasks (Corning) and washed with 1×DPBS and lifted with 0.05% Trypsin (Life Technologies). The cells were then spun (1K rpm, 3 minutes) and frozen using Recovery Cell Culture Freezing Media (Gibco Technologies). Cells were stored in liquid nitrogen and thawed a day before the assay. A similar procedure was used for cells stably expressing the human cloned CHRM5 receptor (M5_CHO).
# (§3) Prior to the day of the assay, stable M3_CHO or M5_CHO cells were thawed and plated on Greiner 384 well black TC treated plates at 12K cells/well in F12/DMEM supplemented with 10% FBS (Hyclone) and kept overnight in a humidified atmosphere (5% CO2) at 37° C. The next day, cells were loaded with Ca^++ dye (BD Biosciences) using Loading Buffer (HBSS +Ca/+Mg, 20 mM HEPES, 2.5 mM Probenecid) and placed back in cell incubator for a minimum of 1 hour. After incubation, the dye was replaced with Assay Buffer (HBSS −Ca/−Mg, 20 mM HEPES, 2.5 mM Probenecid) and kept at room temperature in the dark before running on cell imager. The FDSS 7000EX (Hamamatsu) was used to acquire Ca^++ traces from cells treated with 11 point dose response of compounds in triplicate in order to generate dose response curves in agonist mode. All compounds were serially diluted in DMSO then prepared in Assay Buffer for Ca^++ flux studies. The dose response curves were generated from the average of triplicate wells obtained from each data point and used a non-linear regression of four parameter dose response algorithm. The Percent Activity (PA) was measured to EC100 of Carbachol.
# [2] = biological target: T2, human cloned CHRM5 receptor (M5_CHO) (Homo sapiens, UniProt P08912); assay: CHRM5 Ca++ Flux Assay (agonist mode, FDSS 7000EX); type: cell-based; settings: Percent Activity measured to EC100 of Carbachol; read-out: M5 FDSS PA
# T2 construct: expressed in transfected cells; host or cells: CHO (M5_CHO)
# T2 sequence (P08912 1-532): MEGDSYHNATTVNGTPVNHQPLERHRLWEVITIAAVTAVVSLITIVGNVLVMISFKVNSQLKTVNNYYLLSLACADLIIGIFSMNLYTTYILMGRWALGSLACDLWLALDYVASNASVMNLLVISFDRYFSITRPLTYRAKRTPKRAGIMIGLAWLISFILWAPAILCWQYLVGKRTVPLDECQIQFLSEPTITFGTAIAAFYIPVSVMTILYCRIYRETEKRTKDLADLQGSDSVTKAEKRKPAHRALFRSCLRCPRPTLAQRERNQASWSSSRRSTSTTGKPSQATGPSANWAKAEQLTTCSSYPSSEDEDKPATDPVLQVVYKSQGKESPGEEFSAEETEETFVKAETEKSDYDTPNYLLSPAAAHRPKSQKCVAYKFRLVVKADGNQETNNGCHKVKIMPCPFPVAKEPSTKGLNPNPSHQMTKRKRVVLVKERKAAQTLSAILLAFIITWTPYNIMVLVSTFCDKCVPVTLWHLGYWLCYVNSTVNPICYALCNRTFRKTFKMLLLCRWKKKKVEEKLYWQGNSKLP
# Description: as §1, §2, §3
# [3] = tested on: hyperactivity in mice induced by the stimulant d-amphetamine; settings: general statement on clinically efficacious muscarinic antipsychotics; xanomeline used as positive control (1.0 mg/kg, SC); cited from earlier work
# [4] = Percent Activity measured to EC100 of Carbachol
# T1 sequence (P20309 whole entry): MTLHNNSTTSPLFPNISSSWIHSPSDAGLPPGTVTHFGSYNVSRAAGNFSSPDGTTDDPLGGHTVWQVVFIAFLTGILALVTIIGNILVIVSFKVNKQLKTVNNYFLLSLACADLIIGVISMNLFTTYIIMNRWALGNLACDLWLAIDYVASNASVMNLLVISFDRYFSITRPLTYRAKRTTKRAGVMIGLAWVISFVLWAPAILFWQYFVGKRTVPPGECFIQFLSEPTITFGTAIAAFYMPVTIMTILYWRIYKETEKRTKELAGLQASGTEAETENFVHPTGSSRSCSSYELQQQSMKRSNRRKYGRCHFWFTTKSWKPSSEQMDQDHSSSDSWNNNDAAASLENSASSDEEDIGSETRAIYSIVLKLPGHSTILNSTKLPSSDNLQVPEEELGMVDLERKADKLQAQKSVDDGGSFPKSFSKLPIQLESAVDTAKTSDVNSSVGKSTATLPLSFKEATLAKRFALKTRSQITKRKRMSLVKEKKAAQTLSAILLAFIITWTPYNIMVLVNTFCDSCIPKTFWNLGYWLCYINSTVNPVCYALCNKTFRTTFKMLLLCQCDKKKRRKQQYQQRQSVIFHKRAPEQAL
"M3 FDSS PA [1, 4] [%]",EC50 [1] [µM],"Emax ([1]; Percent Activity measured to EC100 of Carbachol, read-out: M3 FDSS PA) [%]",Emax [2] [%],SMILES,activity in the amphetamine induced hyperlocomotion assay [3]
0,> 25,–,–,"COc1ccccc1C1CCN([C@H]2CCC3(C2)CN(C(=O)C2COC2)C3)CC1 (single isomer, unassigned) [Example 8C, (S)-(6-(4-(2-methoxyphenyl)piperidin-1-yl)-2-azaspiro[3.4]octan-2-yl)(oxetan-3-yl)methanone or (R)-(6-(4-(2-methoxyphenyl)piperidin-1-yl)-2-azaspiro[3.4]octan-2-yl)(oxetan-3-yl)methanone]",–
0,> 25,–,–,"COc1ccccc1C1CCN([C@H]2CCC3(C2)CN(C(=O)C2COC2)C3)CC1 (single isomer, unassigned) [Example 8D, (S)-(6-(4-(2-methoxyphenyl)piperidin-1-yl)-2-azaspiro[3.4]octan-2-yl)(oxetan-3-yl)methanone or (R)-(6-(4-(2-methoxyphenyl)piperidin-1-yl)-2-azaspiro[3.4]octan-2-yl)(oxetan-3-yl)methanone]",–
–,–,0,0,"COc1cc(F)ccc1C1CCN([C@@H]2CCC3(C2)CN(C(=O)C2COC2)C3)CC1 [Example 6C, (R)-(6-(4-(4-fluoro-2-methoxyphenyl)piperidin-1-yl)-2-azaspiro[3.4]octan-2-yl)(oxetan-3-yl)methanone]",–
–,–,–,–,CCCCCCOc1nsnc1C1=CCCN(C)C1 [xanomeline],active
